Assay results taken from ChEMBL document CHEMBL3885861, “Open TG-GATES”.

Species: Rattus norvegicus
Assay: Open TG-GATES - Regimen: Daily Repeat
Format: toxicity, organism-based, Sprague-Dawley
Parameters: regimen Daily Repeat, gender Male, age 6 weeks
Conditions: in vivo, po, 3 mg/kg, route gavage, dose level Low; for APTT / Bas / Eos / Fbg / Hb / Ht / Lym / MCH / MCHC / Mono / Neu / Plat / RBC / Ret: tissue Blood
[1] = 72 h, tissue Kidney, time 3 day
[2] = 72 h, tissue Plasma, time 3 day

For `O=C(CCCN1CCC(O)(c2ccc(Cl)cc2)CC1)c1ccc(F)cc1` [HALOPERIDOL], which TERMINAL_BW (72 h, time 3 day) is on record?
Its TERMINAL_BW is 219.6 g.

What about the APTT (72 h, time 3 day) of the same compound?
The APTT was 16 s.

What about the Bas (72 h, time 3 day) of the same compound?
Its Bas is 0%.

And the Eos (72 h, time 3 day)?
Its Eos is 1.4%.

What about the Fbg (72 h, time 3 day) of the same compound?
The Fbg was 210 mg/dL.

And the Hb (72 h, time 3 day)?
Its Hb is 14.1 g/dL.

And the Ht (72 h, time 3 day)?
Its Ht is 42.1%.

And the Lym (72 h, time 3 day)?
The Lym was 75.8%.

What about the MCH (72 h, time 3 day) of the same compound?
Its MCH is 21.4 pg.

What about the MCHC (72 h, time 3 day) of the same compound?
Its MCHC is 33.5%.

And the Mono (72 h, time 3 day)?
The Mono was 5%.

What about the Neu (72 h, time 3 day) of the same compound?
Its Neu is 17.8%.

And the Plat (72 h, time 3 day)?
The Plat was 113.5 x10_4/uL.

What about the RBC (72 h, time 3 day) of the same compound?
Its RBC is 658.8 x10_4/ul.

What about the Ret (72 h, time 3 day) of the same compound?
The Ret was 6.6%.

What about the KIDNEY_L [1] of the same compound?
The KIDNEY_L was 0.9 g.

And the KIDNEY_R [1]?
Its KIDNEY_R is 0.9 g.

And the KIDNEY_TOTAL [1]?
The KIDNEY_TOTAL was 1.9 g.

And the LIVER (72 h, tissue Liver, time 3 day)?
Its LIVER is 10.7 g.

What about the ALP [2] of the same compound?
Its ALP is 995 IU/L.

What about the ALT [2] of the same compound?
The ALT was 39.6 IU/L.

What about the AST [2] of the same compound?
The AST was 62 IU/L.

What about the BUN [2] of the same compound?
The BUN was 21 mg/dL.

What about the CRE [2] of the same compound?
The CRE was 0.5 mg/dL.

And the Ca [2]?
Its Ca is 11.3 mg/dL.

And the Cl [2]?
Its Cl is 106.2 meq/L.

What about the DBIL [2] of the same compound?
Its DBIL is 0 mg/dL.

What about the GLC [2] of the same compound?
The GLC was 183.6 mg/dL.

And the IP [2]?
Its IP is 7.9 mg/dL.

What about the K [2] of the same compound?
The K was 4.8 meq/L.

What about the LDH [2] of the same compound?
Its LDH is 76.4 IU/L.

What about the Na [2] of the same compound?
The Na was 138.6 meq/L.

And the PL [2]?
The PL was 195.4 mg/dL.

What about the RALB [2] of the same compound?
Its RALB is 4 g/dL.

What about the TBIL [2] of the same compound?
The TBIL was 0.2 mg/dL.

And the TC [2]?
The TC was 93.6 mg/dL.

And the TG [2]?
Its TG is 112 mg/dL.

What about the TP [2] of the same compound?
The TP was 6 g/dL.

What about the gamma-GTP [2] of the same compound?
Its gamma-GTP is 1.4 IU/L.

And the TERMINAL_BW ([…], time 7 day)?
Its TERMINAL_BW is 256.9 g.

And the TERMINAL_BW ([…], time 14 day)?
Its TERMINAL_BW is 298.2 g.

And the TERMINAL_BW ([…], time 28 day)?
Its TERMINAL_BW is 375.7 g.

What about the APTT ([…], time 7 day) of the same compound?
The APTT was 16.5 s.

What about the Bas ([…], time 7 day) of the same compound?
The Bas was 0%.

What about the Eos ([…], time 7 day) of the same compound?
The Eos was 0.2%.

What about the Fbg ([…], time 7 day) of the same compound?
The Fbg was 217 mg/dL.

And the Hb ([…], time 7 day)?
The Hb was 14.3 g/dL.

What about the Ht ([…], time 7 day) of the same compound?
Its Ht is 42.9%.

What about the Lym ([…], time 7 day) of the same compound?
Its Lym is 79.2%.

And the MCH ([…], time 7 day)?
Its MCH is 21.1 pg.

What about the MCHC ([…], time 7 day) of the same compound?
Its MCHC is 33.4%.

What about the Mono ([…], time 7 day) of the same compound?
Its Mono is 4.4%.

And the Neu ([…], time 7 day)?
The Neu was 16.2%.

And the Plat ([…], time 7 day)?
Its Plat is 100.7 x10_4/uL.

What about the RBC ([…], time 7 day) of the same compound?
The RBC was 678.4 x10_4/ul.

What about the Ret ([…], time 7 day) of the same compound?
The Ret was 5.1%.

What about the APTT ([…], time 14 day) of the same compound?
The APTT was 17.2 s.

And the Bas ([…], time 14 day)?
The Bas was 0%.

And the Eos ([…], time 14 day)?
Its Eos is 0.8%.

What about the Fbg ([…], time 14 day) of the same compound?
The Fbg was 226.4 mg/dL.

What about the Hb ([…], time 14 day) of the same compound?
Its Hb is 15.1 g/dL.

And the Ht ([…], time 14 day)?
The Ht was 45.1%.

And the Lym ([…], time 14 day)?
Its Lym is 76.6%.

And the MCH ([…], time 14 day)?
Its MCH is 20.9 pg.

And the MCHC ([…], time 14 day)?
The MCHC was 33.6%.

What about the Mono ([…], time 14 day) of the same compound?
The Mono was 5.2%.

And the Neu ([…], time 14 day)?
The Neu was 17.4%.

And the Plat ([…], time 14 day)?
Its Plat is 108.9 x10_4/uL.

And the RBC ([…], time 14 day)?
The RBC was 723.2 x10_4/ul.

What about the Ret ([…], time 14 day) of the same compound?
Its Ret is 4%.

And the APTT ([…], time 28 day)?
The APTT was 17.3 s.

What about the Bas ([…], time 28 day) of the same compound?
The Bas was 0%.

And the Eos ([…], time 28 day)?
Its Eos is 0%.

And the Fbg ([…], time 28 day)?
The Fbg was 223.4 mg/dL.

And the Hb ([…], time 28 day)?
The Hb was 15.2 g/dL.

What about the Ht ([…], time 28 day) of the same compound?
Its Ht is 45.4%.

And the Lym ([…], time 28 day)?
The Lym was 84.4%.

And the MCH ([…], time 28 day)?
Its MCH is 19.4 pg.
